Assay results as given in the supplement of paper PMC11208160.

Experiment: recombinant UMI read abundance after kanamycin selection (control-corrected) (log10(CPM+1)); higher = more efficient recombination; extreme values may be limits of the assay; sequences stand for … in AGTGCAGAGAAAATCGGCCAGTTTTCTCTGCCTGCAGTCCGCATGCCGTGGGACCCCTTGGGTTCTAACCTGTTGCCTAGATTTATGCAGCGGACTGCCTTTCTCCCAAAGTGATAAACCGG…AGGTTGGTTTCACT; site = the 11-nt donor
In short: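 In a pooled Escherichia coli screen for the IS621 bridge recombinase, donor and donor-binding-loop pairs were each placed with a 12-nt UMI on a plasmid bearing a promoterless kanamycin gene. This library was co-electroporated with a target plasmid encoding a fixed target and T7-inducible recombinase, and cells were plated either on IPTG (0.07 mM) plus kanamycin or without selection, in two replicates each. Recombinant UMIs were PCR-amplified across the donor–target junction and sequenced, and counts were converted to CPM, averaged over replicates, scaled by control-derived factors and reported as log10(CPM+1).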
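Note: IS621 bridge recombinase in Escherichia coli cells against a fixed T5 target plasmid.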

GATTACCCATGGACCGGTTTTCCCGGTAATCCGTATTTGCT (site GATTACCCTAG)
recombinant UMI read abundance (log10): 0

GATTACCCATGGACCGGTTTTCCCGGTAATCCGTATTTGCT (site GATTAGCCTAG)
recombinant UMI read abundance (log10): 0

GATTACCCATGGACCGGTTTTCCCGGTAATCCGTATTTGCT (site GATTATCCTAG)
recombinant UMI read abundance (log10): 0

GATTATCCATGGACCGGTTTTCCCGGTAATCCGTATTTGCT (site AATTATCCTAG)
recombinant UMI read abundance (log10): 0

GATTATCCATGGACCGGTTTTCCCGGTAATCCGTATTTGCT (site CATTATCCTAG)
recombinant UMI read abundance (log10): 0.436

GATTATCCATGGACCGGTTTTCCCGGTAATCCGTATTTGCT (site GAATATCCTAG)
recombinant UMI read abundance (log10): 0

GATTATCCATGGACCGGTTTTCCCGGTAATCCGTATTTGCT (site GACTATCCTAG)
recombinant UMI read abundance (log10): 0

GATTATCCATGGACCGGTTTTCCCGGTAATCCGTATTTGCT (site GAGTATCCTAG)
recombinant UMI read abundance (log10): 0

GATTATCCATGGACCGGTTTTCCCGGTAATCCGTATTTGCT (site GATAATCCTAG)
recombinant UMI read abundance (log10): 0

GATTATCCATGGACCGGTTTTCCCGGTAATCCGTATTTGCT (site GATCATCCTAG)
recombinant UMI read abundance (log10): 0.81

GATTATCCATGGACCGGTTTTCCCGGTAATCCGTATTTGCT (site GATGATCCTAG)
recombinant UMI read abundance (log10): 0

GATTATCCATGGACCGGTTTTCCCGGTAATCCGTATTTGCT (site GATTAACCTAG)
recombinant UMI read abundance (log10): 0

GATTATCCATGGACCGGTTTTCCCGGTAATCCGTATTTGCT (site GATTACCCTAG)
recombinant UMI read abundance (log10): 0

GATTATCCATGGACCGGTTTTCCCGGTAATCCGTATTTGCT (site GATTAGCCTAG)
recombinant UMI read abundance (log10): 0.351

GATTATCCATGGACCGGTTTTCCCGGTAATCCGTATTTGCT (site GATTATACTAG)
recombinant UMI read abundance (log10): 0

GATTATCCATGGACCGGTTTTCCCGGTAATCCGTATTTGCT (site GATTATCCTAA)
recombinant UMI read abundance (log10): 0.00555

GATTATCCATGGACCGGTTTTCCCGGTAATCCGTATTTGCT (site GATTATCCTAC)
recombinant UMI read abundance (log10): 0.0217

GATTATCCATGGACCGGTTTTCCCGGTAATCCGTATTTGCT (site GATTATCCTAG)
recombinant UMI read abundance (log10): 0

GATTATCCATGGACCGGTTTTCCCGGTAATCCGTATTTGCT (site GATTATCCTAT)
recombinant UMI read abundance (log10): 0.0146

GATTATCCATGGACCGGTTTTCCCGGTAATCCGTATTTGCT (site GATTATCCTCG)
recombinant UMI read abundance (log10): 0

GATTATCCATGGACCGGTTTTCCCGGTAATCCGTATTTGCT (site GATTATCCTGG)
recombinant UMI read abundance (log10): 0

GATTATCCATGGACCGGTTTTCCCGGTAATCCGTATTTGCT (site GATTATCCTTG)
recombinant UMI read abundance (log10): 0

GATTATCCATGGACCGGTTTTCCCGGTAATCCGTATTTGCT (site GATTATGCTAG)
recombinant UMI read abundance (log10): 0

GATTATCCATGGACCGGTTTTCCCGGTAATCCGTATTTGCT (site GATTATTCTAG)
recombinant UMI read abundance (log10): 0

GATTATCCATGGACCGGTTTTCCCGGTAATCCGTATTTGCT (site GATTCTCCTAG)
recombinant UMI read abundance (log10): 0

GATTATCCATGGACCGGTTTTCCCGGTAATCCGTATTTGCT (site GATTGTCCTAG)
recombinant UMI read abundance (log10): 0

GATTATCCATGGACCGGTTTTCCCGGTAATCCGTATTTGCT (site GATTTTCCTAG)
recombinant UMI read abundance (log10): 0

GATTATCCATGGACCGGTTTTCCCGGTAATCCGTATTTGCT (site GCTTATCCTAG)
recombinant UMI read abundance (log10): 0

GATTATCCATGGACCGGTTTTCCCGGTAATCCGTATTTGCT (site GGTTATCCTAG)
recombinant UMI read abundance (log10): 0

GATTATCCATGGACCGGTTTTCCCGGTAATCCGTATTTGCT (site GTTTATCCTAG)
recombinant UMI read abundance (log10): 0

GATTATCCATGGACCGGTTTTCCCGGTAATCCGTATTTGCT (site TATTATCCTAG)
recombinant UMI read abundance (log10): 0

GATTATGCATGGACCGGTTTTCCCGGTAATCCGTATTTGCT (site GATTATACTAG)
recombinant UMI read abundance (log10): 1.54

GATTATGCATGGACCGGTTTTCCCGGTAATCCGTATTTGCT (site GATTATCCTAG)
recombinant UMI read abundance (log10): 0.309

GATTATGCATGGACCGGTTTTCCCGGTAATCCGTATTTGCT (site GATTATGCTAG)
recombinant UMI read abundance (log10): 2.13

GATTATGCATGGACCGGTTTTCCCGGTAATCCGTATTTGCT (site GATTATTCTAG)
recombinant UMI read abundance (log10): 0

GATTCACCATGGACCGGTTTTCCCGGTAATCCGTATTTGTT (site GATTCACCTAA)
recombinant UMI read abundance (log10): 0.0124

GATTCGACATGGACCGGTTTTCCCGGTAATCCGTATTTGAC (site GATTAGACTGT)
recombinant UMI read abundance (log10): 0

GATTCGACATGGACCGGTTTTCCCGGTAATCCGTATTTGAC (site GATTCGACTGT)
recombinant UMI read abundance (log10): 2.01

GATTCGACATGGACCGGTTTTCCCGGTAATCCGTATTTGAC (site GATTGGACTGT)
recombinant UMI read abundance (log10): 0

GATTCGACATGGACCGGTTTTCCCGGTAATCCGTATTTGAC (site GATTTGACTGT)
recombinant UMI read abundance (log10): 0

GATTGCACATGGACCGGTTTTCCCGGTAATCCGTATTTGAC (site GATTGAACTGT)
recombinant UMI read abundance (log10): 0

GATTGCACATGGACCGGTTTTCCCGGTAATCCGTATTTGAC (site GATTGCACTGT)
recombinant UMI read abundance (log10): 1.53

GATTGCACATGGACCGGTTTTCCCGGTAATCCGTATTTGAC (site GATTGGACTGT)
recombinant UMI read abundance (log10): 0

GATTGCACATGGACCGGTTTTCCCGGTAATCCGTATTTGAC (site GATTGTACTGT)
recombinant UMI read abundance (log10): 0

GATTGCCCATGGACCGGTTTTCCCGGTAATCCGTATTTGAT (site GATTGCCCTAT)
recombinant UMI read abundance (log10): 0

GATTGCCCATGGACCGGTTTTCCCGGTAATCCGTATTTGAT (site GCTTGCCCTAT)
recombinant UMI read abundance (log10): 0.0105

GATTGCCCATGGACCGGTTTTCCCGGTAATCCGTATTTGAT (site GGTTGCCCTAT)
recombinant UMI read abundance (log10): 0.00714

GATTGCCCATGGACCGGTTTTCCCGGTAATCCGTATTTGAT (site GTTTGCCCTAT)
recombinant UMI read abundance (log10): 0.00814

GATTGGACATGGACCGGTTTTCCCGGTAATCCGTATTTGAA (site GATTGGACTAT)
recombinant UMI read abundance (log10): 0.0122

GATTGGACATGGACCGGTTTTCCCGGTAATCCGTATTTGAA (site GATTGGACTCT)
recombinant UMI read abundance (log10): 0.0133

GATTGGACATGGACCGGTTTTCCCGGTAATCCGTATTTGAA (site GATTGGACTGT)
recombinant UMI read abundance (log10): 0

GATTGGACATGGACCGGTTTTCCCGGTAATCCGTATTTGAA (site GATTGGACTTT)
recombinant UMI read abundance (log10): 0.419

GATTGGACATGGACCGGTTTTCCCGGTAATCCGTATTTGAC (site AATTGGACTGT)
recombinant UMI read abundance (log10): 0.543

GATTGGACATGGACCGGTTTTCCCGGTAATCCGTATTTGAC (site CATTGGACTGT)
recombinant UMI read abundance (log10): 0.263

GATTGGACATGGACCGGTTTTCCCGGTAATCCGTATTTGAC (site GAATGGACTGT)
recombinant UMI read abundance (log10): 1.41

GATTGGACATGGACCGGTTTTCCCGGTAATCCGTATTTGAC (site GACTGGACTGT)
recombinant UMI read abundance (log10): 0

GATTGGACATGGACCGGTTTTCCCGGTAATCCGTATTTGAC (site GAGTGGACTGT)
recombinant UMI read abundance (log10): 0

GATTGGACATGGACCGGTTTTCCCGGTAATCCGTATTTGAC (site GATAGGACTGT)
recombinant UMI read abundance (log10): 0.353

GATTGGACATGGACCGGTTTTCCCGGTAATCCGTATTTGAC (site GATCGGACTGT)
recombinant UMI read abundance (log10): 0.745

GATTGGACATGGACCGGTTTTCCCGGTAATCCGTATTTGAC (site GATGGGACTGT)
recombinant UMI read abundance (log10): 0

GATTGGACATGGACCGGTTTTCCCGGTAATCCGTATTTGAC (site GATTAGACTGT)
recombinant UMI read abundance (log10): 0

GATTGGACATGGACCGGTTTTCCCGGTAATCCGTATTTGAC (site GATTCGACTGT)
recombinant UMI read abundance (log10): 0

GATTGGACATGGACCGGTTTTCCCGGTAATCCGTATTTGAC (site GATTGAACTGT)
recombinant UMI read abundance (log10): 0

GATTGGACATGGACCGGTTTTCCCGGTAATCCGTATTTGAC (site GATTGCACTGT)
recombinant UMI read abundance (log10): 0

GATTGGACATGGACCGGTTTTCCCGGTAATCCGTATTTGAC (site GATTGGACTAT)
recombinant UMI read abundance (log10): 0.0111

GATTGGACATGGACCGGTTTTCCCGGTAATCCGTATTTGAC (site GATTGGACTCT)
recombinant UMI read abundance (log10): 0.00872

GATTGGACATGGACCGGTTTTCCCGGTAATCCGTATTTGAC (site GATTGGACTGA)
recombinant UMI read abundance (log10): 0.0103

GATTGGACATGGACCGGTTTTCCCGGTAATCCGTATTTGAC (site GATTGGACTGC)
recombinant UMI read abundance (log10): 0
